Data as given in patent US20260285850A1, “SUBSTITUTED OXAZOLIDINONES AND IMIDAZOLINONES AS HERBICIDES” (FMC CORPORATION, priority 2023, published 2026).

What was measured:
Format in all cases: in vivo
[1] = test system: barnyardgrass (Echinochloa crus-galli); assay: Test A postemergence application, visual injury rating 0-100
Text: (§1) Seeds of plant species selected from barnyardgrass (Echinochloa crus-galli), blackgrass (Alopecurus myosuroides), corn (Zea mays), foxtail, giant (giant foxtail, Setaria faberi), green foxtail (Setaria viridis), goosegrass (Eleusine indica), kochia (Bassia scoparia), oat, wild (wild oat, Avena fatua), palmer (palmer amaranth, palmer pigweed, Amaranthus palmeri), ragweed (common ragweed, Ambrosia artemisiifolia), ryegrass, Italian (italian ryegrass, Lolium multiflorum), soybean (Glycine max) and wheat (Triticum aestivum) were planted into a blend of loam soil and sand and treated preemergence with a directed soil spray using test chemicals formulated in a non-phytotoxic solvent mixture which included a surfactant.
(§2) At the same time, plants selected from these crops and weed species and also galium (catchweed bedstraw, Galium aparine) and horseweed (Erigeron canadensis) were planted in pots containing the same blend of loam soil and sand and treated with postemergence applications of test chemicals formulated in the same manner. Plants ranged in height from 2 to 10 cm and were in the one- to two-leaf stage for the postemergence treatment. Treated plants and untreated controls were maintained in a greenhouse for 10 days, after which time all treated plants were compared to untreated controls and visually evaluated for injury. Plant response ratings, summarized in Table A, are based on a 0 to 100 scale where 0 is no effect and 100 is complete control. A dash (-) response means no test result.

[2] = test system: galium (catchweed bedstraw, Galium aparine); assay: as above; conditions: Postemergence
Text: as §1, §2

[3] = test system: blackgrass (Alopecurus myosuroides); assay: as above
Text: as §1, §2

[4] = test system: palmer (palmer amaranth, palmer pigweed, Amaranthus palmeri); assay: as above
Text: as §1, §2

[5] = test system: oat, wild (wild oat, Avena fatua); assay: as above; conditions: for Oat, Wild plant response rating (0 to 100 scale): Postemergence
Text: as §1, §2

[6] = test system: horseweed (Erigeron canadensis); assay: as above; conditions: Postemergence
Text: as §1, §2

corn (Zea mays) [7] = assay: as above; conditions: for Corn plant response rating (0 to 100 scale): Postemergence
Text: as §1, §2

[8] = test system: ryegrass, Italian (italian ryegrass, Lolium multiflorum); assay: as above; conditions: for Ryegrass, Italian plant response rating (0 to 100 scale): Postemergence
Text: as §1, §2

soybean (Glycine max) [9] = assay: as above; conditions: for Soybean plant response rating (0 to 100 scale): Postemergence
Text: as §1, §2

kochia (Bassia scoparia) [10] = assay: as above
Text: as §1, §2

[11] = test system: wheat (Triticum aestivum); assay: as above; conditions: for Wheat plant response rating (0 to 100 scale): Postemergence
Text: as §1, §2

[12] = test system: ragweed (common ragweed, Ambrosia artemisiifolia); assay: as above; conditions: for Ragweed plant response rating (0 to 100 scale): Postemergence
Text: as §1, §2

[13] = test system: barnyardgrass (Echinochloa crus-galli); assay: Test A preemergence soil spray, visual injury rating 0-100; conditions: 10 days; for Barnyardgrass plant response rating: 0 to 100 scale
Text: as §1, §2

[14] = test system: blackgrass (Alopecurus myosuroides); assay: as above; conditions: 10 days; for Blackgrass plant response rating: 0 to 100 scale
Text: as §1, §2

[15] = test system: palmer (palmer amaranth, palmer pigweed, Amaranthus palmeri); assay: as above; conditions: 10 days
Text: as §1, §2

[16] = test system: oat, wild (wild oat, Avena fatua); assay: as above; conditions: 10 days; for Oat, Wild plant response rating: 0 to 100 scale
Text: as §1, §2

corn (Zea mays) [17] = assay: as above; conditions: 10 days; for Corn plant response rating: 0 to 100 scale
Text: as §1, §2

[18] = test system: ryegrass, Italian (italian ryegrass, Lolium multiflorum); assay: as above; conditions: 10 days; for Ryegrass, Italian plant response rating: 0 to 100 scale
Text: as §1, §2

soybean (Glycine max) [19] = assay: as above; conditions: 10 days; for Soybean plant response rating: 0 to 100 scale
Text: as §1, §2

kochia (Bassia scoparia) [20] = assay: as above; conditions: 10 days; for Kochia plant response rating: 0 to 100 scale
Text: as §1, §2

[21] = test system: wheat (Triticum aestivum); assay: as above; conditions: 10 days; for Wheat plant response rating: 0 to 100 scale
Text: as §1, §2

[22] = test system: ragweed (common ragweed, Ambrosia artemisiifolia); assay: as above; conditions: 10 days; for Ragweed plant response rating: 0 to 100 scale
Text: as §1, §2

[23] = test system: sedge, umbrella (small-flower umbrella sedge, Cyperus difformis); assay: Test B flooded paddy test, visual plant response rating 0-100; conditions: 250 g ai/ha, Flood, applied to paddy water, evaluated after 13 days
Protocol: (§3) Plant species in the flooded paddy test selected from barnyardgrass (Echinochloa crusgalli), ducksalad (Heteranthera limosa), rice (Oryza sativa), and sedge, umbrella (small-flower umbrella sedge, Cyperus difformis) were grown to the 2-leaf stage for testing. At time of treatment, test pots were flooded to 3 cm above the soil surface, treated by application of test compounds directly to the paddy water, and then maintained at that water depth for the duration of the test. Treated plants and controls were maintained in a greenhouse for 13 days, after which time all species were compared to controls and visually evaluated. […] A dash (-) response means no test result.

[24] = test system: barnyardgrass (Echinochloa crusgalli); assay: as above; conditions: 250 g ai/ha, Flood, applied to paddy water, evaluated after 13 days
Protocol: as §3

[25] = test system: ducksalad (Heteranthera limosa); assay: as above; conditions: 250 g ai/ha, Flood, applied to paddy water, evaluated after 13 days
Protocol: as §3

rice (Oryza sativa) = assay: as above; conditions: 250 g ai/ha, Flood, applied to paddy water, evaluated after 13 days
Protocol: as §3

[26] = test system: green foxtail (Setaria viridis); assay: Test A postemergence application, visual injury rating 0-100
Text: as §1, §2

[27] = test system: green foxtail (Setaria viridis); assay: Test A preemergence soil spray, visual injury rating 0-100; conditions: 10 days
Text: as §1, §2

[28] = Postemergence, 31 g ai/ha, greenhouse 10 days, 0 no effect, 100 complete control
[29] = Postemergence, 125 g ai/ha, 10 days, 0 is no effect, 100 is complete control
[30] = 31 g ai/ha, greenhouse 10 days, 0 no effect, 100 complete control
[31] = 125 g ai/ha, 10 days, 0 is no effect, 100 is complete control
[32] = 62 g ai/ha, postemergence, 10 days, 0 = no effect, 100 = complete control
[33] = Postemergence, 16 g ai/ha, greenhouse 10 days, 0 no effect, 100 complete control
[34] = 16 g ai/ha, greenhouse 10 days, 0 no effect, 100 complete control
[35] = 62 g ai/ha, 0 = no effect, 100 = complete control
[36] = Postemergence, 1000 g ai/ha, 0 to 100 scale, 10 days
[37] = 1000 g ai/ha, 0 to 100 scale, 10 days
[38] = 1000 g ai/ha, 0 = no effect, 100 = complete control

CC1(C(=O)NC2C=CC(C(=O)NS(=O)(=O)c3ccccc3)C2)CN(c2cc(Cl)cc(Cl)c2)C(=O)O1 (centres unmarked) [Compound 86]
Barnyardgrass plant response rating (0 to 100 scale) [1, 28]: 90
Barnyardgrass plant response rating (0 to 100 scale) [1, 29]: 90
Galium plant response rating (0 to 100 scale) [2, 30]: 70
Galium plant response rating (0 to 100 scale) [2, 31]: 80
Blackgrass plant response rating (0 to 100 scale) [3, 28]: 30
Blackgrass plant response rating (0 to 100 scale) [3, 29]: 70
Amaranth, Palmer / Pigweed, Palmer plant response rating (0 to 100 scale) [4, 28]: 90
Amaranth, Palmer / Pigweed, Palmer plant response rating (0 to 100 scale) [4, 29]: 90
Oat, Wild plant response rating (0 to 100 scale) [5, 30]: 60
Oat, Wild plant response rating (0 to 100 scale) [5, 31]: 90
Horseweed plant response rating (0 to 100 scale) [6, 30]: 40
Horseweed plant response rating (0 to 100 scale) [6, 31]: 50
Corn plant response rating (0 to 100 scale) (corn (Zea mays) [7]; [30]): 90
Corn plant response rating (0 to 100 scale) (corn (Zea mays) [7]; [31]): 100
Ryegrass, Italian plant response rating (0 to 100 scale) [8, 30]: 60
Ryegrass, Italian plant response rating (0 to 100 scale) [8, 31]: 70
Soybean plant response rating (0 to 100 scale) (soybean (Glycine max) [9]; [30]): 20
Soybean plant response rating (0 to 100 scale) (soybean (Glycine max) [9]; [31]): 60
Kochia plant response rating (0 to 100 scale) (kochia (Bassia scoparia) [10]; [28]): 80
Kochia plant response rating (0 to 100 scale) (kochia (Bassia scoparia) [10]; [29]): 90
Wheat plant response rating (0 to 100 scale) [11, 30]: 60
Wheat plant response rating (0 to 100 scale) [11, 31]: 80
Ragweed plant response rating (0 to 100 scale) [12, 30]: 60
Ragweed plant response rating (0 to 100 scale) [12, 31]: 80
Barnyardgrass plant response rating ([13]; 31 g ai/ha): 30
Blackgrass plant response rating ([14]; 31 g ai/ha): 0
Amaranth, Palmer (Pigweed, Palmer) plant response rating ([15]; 31 g ai/ha, 0 to 100 scale): 70
Oat, Wild plant response rating ([16]; 31 g ai/ha): 0
Corn plant response rating (corn (Zea mays) [17]; 31 g ai/ha): 0
Ryegrass, Italian plant response rating ([18]; 31 g ai/ha): 0
Soybean plant response rating (soybean (Glycine max) [19]; 31 g ai/ha): 0
Kochia plant response rating (kochia (Bassia scoparia) [20]; 31 g ai/ha): 40
Wheat plant response rating ([21]; 31 g ai/ha): 0
Ragweed plant response rating ([22]; 31 g ai/ha): 10

CCOC(=O)C1=CCC(NC(=O)C2(C)CN(c3cc(F)cc(F)c3)C(=O)O2)C1 (centres unmarked) [Compound 111]
Plant response rating, Sedge, Umbrella (0 to 100 scale, 0 is no effect and 100 is complete control) [23]: 0
Plant response rating, Barnyardgrass (0 to 100 scale, 0 is no effect and 100 is complete control) [24]: 0
Plant response rating, Ducksalad (0 to 100 scale, 0 is no effect and 100 is complete control) [25]: 0
Plant response rating, Rice (0 to 100 scale, 0 is no effect and 100 is complete control) (rice (Oryza sativa)): 0
Barnyardgrass plant response rating (0-100) [1, 32]: 20
Barnyardgrass plant response rating (0 to 100 scale) [1, 33]: 0
Blackgrass plant response rating (0-100) [3, 32]: 0
Blackgrass plant response rating (0 to 100 scale) [3, 33]: 0
Pigweed, Palmer plant response rating (0-100) [4, 32]: 10
Pigweed, Palmer plant response rating (0 to 100 scale) [4, 33]: 0
Foxtail, Green plant response rating (0-100) [26, 32]: 0
Foxtail, Green plant response rating (0 to 100 scale) [26, 33]: 0
Oat, Wild plant response rating (0-100) [5, 32]: 0
Oat, Wild plant response rating (0 to 100 scale) [5, 34]: 0
Corn plant response rating (0-100) (corn (Zea mays) [7]; [32]): 0
Corn plant response rating (0 to 100 scale) (corn (Zea mays) [7]; [34]): 0
Ryegrass, Italian plant response rating (0-100) [8, 32]: 0
Ryegrass, Italian plant response rating (0 to 100 scale) [8, 34]: 0
Soybean plant response rating (0-100) (soybean (Glycine max) [9]; [32]): 0
Soybean plant response rating (0 to 100 scale) (soybean (Glycine max) [9]; [34]): 0
Kochia plant response rating (0-100) (kochia (Bassia scoparia) [10]; [32]): 0
Kochia plant response rating (0 to 100 scale) (kochia (Bassia scoparia) [10]; [33]): 0
Wheat plant response rating (0-100) [11, 32]: 20
Wheat plant response rating (0 to 100 scale) [11, 34]: 0
Ragweed plant response rating (0-100) [12, 32]: 0
Ragweed plant response rating (0 to 100 scale) [12, 34]: 0
Barnyardgrass plant response rating ([13]; 16 g ai/ha): 0
Barnyardgrass plant response rating (0-100) [13, 35]: 0
Blackgrass plant response rating ([14]; 16 g ai/ha): 0
Blackgrass plant response rating (0-100) [14, 35]: 0
Pigweed, Palmer plant response rating ([15]; 16 g ai/ha, 0 to 100 scale): 0
Foxtail, Green plant response rating ([27]; 16 g ai/ha, 0 to 100 scale): 0
Foxtail, Green plant response rating (0-100) [27, 35]: 0
Oat, Wild plant response rating ([16]; 16 g ai/ha): 0
Oat, Wild plant response rating (0-100) [16, 35]: 0
Corn plant response rating (corn (Zea mays) [17]; 16 g ai/ha): 0
Corn plant response rating (0-100) (corn (Zea mays) [17]; [35]): 0
Ryegrass, Italian plant response rating ([18]; 16 g ai/ha): 0
Ryegrass, Italian plant response rating (0-100) [18, 35]: 0
Soybean plant response rating (soybean (Glycine max) [19]; 16 g ai/ha): 100
Soybean plant response rating (0-100) (soybean (Glycine max) [19]; [35]): 0
Kochia plant response rating (kochia (Bassia scoparia) [20]; 16 g ai/ha): 0
Kochia plant response rating (0-100) (kochia (Bassia scoparia) [20]; [35]): 0
Wheat plant response rating ([21]; 16 g ai/ha): 0
Wheat plant response rating (0-100) [21, 35]: 0
Ragweed plant response rating ([22]; 16 g ai/ha): 0
Ragweed plant response rating (0-100) [22, 35]: 0

CC1(C(=O)NC2C=CC(C(=O)O)C2)CN(c2cc(F)cc(F)c2)C(=O)N1 (centres unmarked) [Compound 179]
Barnyardgrass plant response rating [1, 36]: 100
Galium plant response rating [2, 37]: 90
Blackgrass plant response rating [3, 36]: 100
Foxtail, Green plant response rating [26, 36]: 90
Horseweed plant response rating [6, 37]: 80
Kochia plant response rating (kochia (Bassia scoparia) [10]; [36]): 90
Barnyardgrass plant response rating (0 to 100 scale) [13, 38]: 100
Amaranth, Palmer / Pigweed, Palmer plant response rating (0 to 100 scale) [15, 38]: 60
Foxtail, Green plant response rating (0 to 100 scale) [27, 38]: 100
Ryegrass, Italian plant response rating (0 to 100 scale) [18, 38]: 100
Kochia plant response rating (0 to 100 scale) (kochia (Bassia scoparia) [20]; [38]): 100
